Reference: paper PMC12388801, “Identification of Bioactive Peptides from Caenorhabditis elegans Secretions That Promote Indole-3-Acetic Acid Production in Arthrobacter pascens ZZ21” (Microorganisms, 2025)
Read-outs that look alike come from different tables or passages of the source. Peptide text beside a SMILES is read from it.

Assay: Solubility assessment of synthetic candidate peptides
Method: Candidate peptide sequences identified by LC-MS/MS were synthesized using GenScript Biotech (Nanjing, China). Peptide solubility was tested in various solvents to determine optimal conditions for functional assays. Initial screening was performed in 30 mL of inorganic salt medium with 200 mg/L L-tryptophan. A. pascens ZZ21 was inoculated at 1% (v/v), and peptides were tested at 1 ppm and 0.1 ppm. The peptides were dissolved according to their solubility profiles, with corresponding solvent controls: CK-A (1 ppm blank) and CK-B (0.1 ppm blank). Cultures were incubated at 30 °C, 250 rpm for 48 h, after which IAA levels in the supernatants were measured.
This analysis was conducted by Biotech Pack Scientific Co., Ltd. (Beijing, China).

[1] = synthetic peptide, N/A = lower than 0.1 mg/mL
[2] = synthetic peptide, ultrapure water, N/A = lower than 0.1 mg/mL

| Solubilty in ultrapure water | Structure (SMILES) | Solubilty in 0.1 M PBS [1] | Solubilty in ultrapure water [2] | Solubilty in DMSO [1] |
| --- | --- | --- | --- | --- |
|  | CC(C)C[C@H](NC(=O)[C@H](CCC(N)=O)NC(=O)[C@@H]1CCCN1)C(=O)N[C@@H](CCC(=O)O)C(=O)N[C@@H](CC(C)C)C(=O)N[C@H](C(=O)N[C@H](C(=O)N1CCC[C@H]1C(=O)N[C@@H](CC(N)=O)C(=O)O)C(C)C)C(C)C [Peptide P22] (H-PQLELVVPN-OH) | N/A (N/A indicates solubility lower than 0.1 mg/mL) | N/A (N/A indicates solubility lower than 0.1 mg/mL) |  |
|  | CC(C)C[C@H](NC(=O)[C@H](CC(=O)O)NC(=O)[C@@H](NC(=O)[C@@H](NC(=O)[C@@H](N)CC(C)C)[C@@H](C)O)C(C)C)C(=O)N[C@@H](Cc1ccccc1)C(=O)N[C@@H](CCCNC(=N)N)C(=O)O [Peptide P27] (H-LTVDLFR-OH) | N/A (N/A indicates solubility lower than 0.1 mg/mL) | N/A (N/A indicates solubility lower than 0.1 mg/mL) |  |
|  | CC(C)C[C@H](NC(=O)CNC(=O)[C@H](CO)NC(=O)[C@@H](N)CC(=O)O)C(=O)N[C@H](C(=O)N[C@@H](CC(C)C)C(=O)N[C@@H](CCCCN)C(=O)O)C(C)C [Peptide P11] (H-DSGLVLK-OH) | N/A (N/A indicates solubility lower than 0.1 mg/mL) |  | N/A (N/A indicates solubility lower than 0.1 mg/mL) |
|  | CC(C)C[C@H](NC(=O)[C@H](CCC(=O)O)NC(=O)[C@H](Cc1ccc(O)cc1)NC(=O)[C@H](Cc1ccc(O)cc1)NC(=O)[C@@H](N)CC(C)C)C(=O)N[C@@H](C)C(=O)N[C@@H](CCCNC(=N)N)C(=O)O [Peptide P14] (H-LYYELAR-OH) | N/A (N/A indicates solubility lower than 0.1 mg/mL) | N/A (N/A indicates solubility lower than 0.1 mg/mL) |  |
|  | CC(C)C[C@H](NC(=O)[C@H](CCC(N)=O)NC(=O)[C@H](CC(C)C)NC(=O)[C@@H](NC(=O)[C@@H](N)CC(C)C)C(C)C)C(=O)N[C@@H](CC(=O)O)C(=O)N[C@@H](CC(N)=O)C(=O)N[C@@H](C)C(=O)N[C@@H](CCCCN)C(=O)O [Peptide P13] (H-LVLQLDNAK-OH) | N/A (N/A indicates solubility lower than 0.1 mg/mL) | N/A (N/A indicates solubility lower than 0.1 mg/mL) |  |
|  | CC(C)[C@H](N)C(=O)N[C@H](C(=O)N[C@@H](CC(=O)O)C(=O)N[C@H](C(=O)N[C@@H](CO)C(=O)N[C@@H](CCC(=O)O)C(=O)N[C@H](C(=O)N[C@@H](Cc1ccccc1)C(=O)N[C@@H](Cc1ccccc1)C(=O)N[C@@H](CCCCN)C(=O)O)C(C)C)C(C)C)[C@@H](C)O [Peptide P28] (H-VTDVSEVFFK-OH) | N/A (N/A indicates solubility lower than 0.1 mg/mL) | N/A (N/A indicates solubility lower than 0.1 mg/mL) |  |
|  | CC(C)C[C@H](NC(=O)[C@H](CC(C)C)NC(=O)[C@H](CC(N)=O)NC(=O)[C@@H](NC(=O)[C@H](CO)NC(=O)[C@@H](NC(=O)[C@@H]1CCCN1C(=O)[C@@H](N)CCC(=O)O)[C@@H](C)O)C(C)C)C(=O)N[C@@H](C)C(=O)N[C@@H](CCC(=O)O)C(=O)O [Peptide P29] (H-EPTSVNLLAE-OH) | N/A (N/A indicates solubility lower than 0.1 mg/mL) | N/A (N/A indicates solubility lower than 0.1 mg/mL) |  |
|  | CC(C)C[C@H](NC(=O)[C@H](CCC(N)=O)NC(=O)[C@@H]1CCCN1)C(=O)N[C@@H](CCC(=O)O)C(=O)N[C@H](C(=O)N[C@@H](CC(C)C)C(=O)N[C@H](C(=O)N1CCC[C@H]1C(=O)N[C@@H](CC(N)=O)C(=O)O)C(C)C)C(C)C [Peptide P20] (H-PQLEVLVPN-OH) | N/A (N/A indicates solubility lower than 0.1 mg/mL) | N/A (N/A indicates solubility lower than 0.1 mg/mL) |  |
|  | CC(C)[C@H](NC(=O)[C@H](C)NC(=O)[C@@H](NC(=O)[C@H](C)NC(=O)[C@H](CO)NC(=O)CN)C(C)C)C(=O)NCC(=O)N[C@@H](CCCNC(=N)N)C(=O)O [Peptide P5] (H-GSAVAVGR-OH) | N/A (N/A indicates solubility lower than 0.1 mg/mL) |  |  |
|  | CC(C)C[C@H](NC(=O)CNC(=O)[C@H](CC(C)C)NC(=O)[C@H](C)NC(=O)[C@H](C)NC(=O)[C@H](CO)NC(=O)[C@H](C)NC(=O)[C@H](C)NC(=O)[C@H](CCC(N)=O)NC(=O)[C@H](CC(C)C)NC(=O)[C@@H](N)C(C)C)C(=O)O [Peptide P24] (H-VLQAASAALGL-OH) | N/A (N/A indicates solubility lower than 0.1 mg/mL) | N/A (N/A indicates solubility lower than 0.1 mg/mL) |  |
|  | CC(C)C[C@H](NC(=O)[C@H](Cc1ccccc1)NC(=O)[C@H](CC(=O)O)NC(=O)[C@@H](NC(=O)[C@H](CC(C)C)NC(=O)[C@@H](N)[C@@H](C)O)C(C)C)C(=O)N[C@@H](CCCNC(=N)N)C(=O)O [Peptide P25] (H-TLVDFLR-OH) | N/A (N/A indicates solubility lower than 0.1 mg/mL) | N/A (N/A indicates solubility lower than 0.1 mg/mL) |  |
|  | CC(C)C[C@H](NC(=O)[C@H](C)NC(=O)[C@H](CC(N)=O)NC(=O)CN)C(=O)N[C@@H](C)C(=O)N[C@H](C(=O)N[C@@H](CCCNC(=N)N)C(=O)O)[C@@H](C)O [Peptide P1] (H-GNALATR-OH) | N/A (N/A indicates solubility lower than 0.1 mg/mL) |  |  |
|  | CC(C)C[C@H](NC(=O)CNC(=O)[C@H](Cc1ccccc1)NC(=O)[C@H](C)NC(=O)[C@H](CC(C)C)NC(=O)[C@H](C)NC(=O)[C@H](CC(C)C)NC(=O)[C@@H](N)[C@@H](C)O)C(=O)N[C@H](C(=O)N[C@@H](C)C(=O)O)[C@@H](C)O [Peptide P12] (H-TLALAFGLTA-OH) |  | N/A (N/A indicates solubility lower than 0.1 mg/mL) |  |
| ≤ 5 mg/mL | CC(C)[C@H](NC(=O)[C@H](CCC(=O)O)NC(=O)[C@H](C)NC(=O)[C@H](Cc1ccccc1)NC(=O)[C@H](CCC(=O)O)NC(=O)[C@H](C)N)C(=O)N[C@@H](CO)C(=O)N[C@@H](CCCCN)C(=O)O [Peptide P6] (H-AEFAEVSK-OH) |  |  |  |
|  | CC(C)C[C@H](NC(=O)[C@H](CO)NC(=O)[C@H](CC(C)C)NC(=O)[C@H](CC(=O)O)NC(=O)[C@H](CC(C)C)NC(=O)[C@@H](N)Cc1ccccc1)C(=O)N[C@@H](CCCCN)C(=O)O [Peptide P18] (H-FLDLSLK-OH) | N/A (N/A indicates solubility lower than 0.1 mg/mL) | N/A (N/A indicates solubility lower than 0.1 mg/mL) |  |
|  | CC(C)C[C@H](NC(=O)[C@H](C)NC(=O)[C@@H](NC(=O)CNC(=O)[C@@H](NC(=O)[C@H](CO)NC(=O)[C@@H](NC(=O)[C@@H]1CCCN1C(=O)[C@@H](N)CCC(=O)O)[C@@H](C)O)C(C)C)C(C)C)C(=O)N[C@@H](C)C(=O)N[C@@H](CCC(=O)O)C(=O)O [Peptide P30] (H-EPTSVGVALAE-OH) |  | N/A (N/A indicates solubility lower than 0.1 mg/mL) | N/A (N/A indicates solubility lower than 0.1 mg/mL) |
